# Source: paper PMC5354814, “In silico and in vitro drug screening identifies new therapeutic approaches for Ewing sarcoma” (Oncotarget, 2016)
# Like-named read-outs stand apart in the source and are kept apart here.
# Experiments:
# human monocyte = test system: human monocyte; design: method as in ref 19 (a number printed in a supplementary file, which may have a reference list of its own: not looked up in the article's list); settings: 0.1 - 1.0 µg auranofin/mL; cited from earlier work
# [1] = cited from earlier work
# rat lung = test system: rat lung; design: method as in ref 19 (a number printed in a supplementary file, which may have a reference list of its own: not looked up in the article's list); settings: 1.5 x 10^-4M; cited from earlier work
# [2] = test system: human polymorphonuclear neutrophil; design: method as in ref 19 (a number printed in a supplementary file, which may have a reference list of its own: not looked up in the article's list); settings: 0.1 - 1.0 µg auranofin/mL; cited from earlier work
# [3] = design: method as in ref 19 (a number printed in a supplementary file, which may have a reference list of its own: not looked up in the article's list); settings: rats, cited from earlier work
# [4] = Blood gold pharmacokinetics after i.p. auranofin suspension with ganetespib pre-treatment; format: in vivo, BALB/c mice
# From the text: As indicated previously, auranofin is a complex of gold triethylphosphine and thioglucose tetraacetate. Gold comprises 29% of auranofin by weight. Auranofin is chemically and metabolically highly unstable in solution. […] Following oral administration of ^195Au auranofin to humans, 25% of administered ^195Au appears in plasma. Further, approximately 40% of absorbed gold distributes into erythrocytes with 60% found in plasma. As a result, and consistent with the extensive literature describing auranofin pharmacokinetics in animals and humans, we characterized the pharmacokinetics of i.p. auranofin in mice by quantifying blood gold concentrations as summarized in Table 4. Peak blood gold concentrations were 12.43 μg/mL in mice receiving auranofin suspension preceded by i.v. ganetespib. […]
# The single-dose […] pharmacokinetics of gold were characterized in 36 BALB/c mice following administration of a single 12 mg/kg i.p. suspension dose of auranofin. […] Whole blood aliquots of 500 μL obtained from each of the three animals per time point were assayed using a validated inductively coupled plasma mass spectrometry (ICPMS) method to quantify blood gold concentration. Mean blood gold concentrations were determined for each blood collection time point. […]
# human monocytes = test system: human monocytes; design: method as in ref 19 (a number printed in a supplementary file, which may have a reference list of its own: not looked up in the article's list); settings: 0.125 µg auranofin/mL; cited from earlier work
# [5] = cited from earlier work; for grossly malformed fetuses: rabbits, days 6-18 of pregnancy
# SK-ES-1 = assay: In vitro high-throughput screen of FDA-approved drug library (CellTiter-Glo); format: cell-based; settings: 1 μmol/L drug, 72 hours
# Experimental: (§1) We screened, in parallel to the three computational approaches, an FDA-approved drug library containing 2,316 drugs (1,536 unique chemical entities). […] The drug screening study protocol employed is summarized in Supplementary Table S1.
# (§2) Cells were grown to 80–90% confluence, harvested and aliquoted into 384-well plates (black μClear microplates, Greiner bio-one, Germany) at concentrations of 750–1,500 cells per well in a total volume of 25 μl/well using a Matrix Wellmate (Thermo Scientific). Cells were cultured for 72 hours in a 5% CO2 atmosphere at 37°C. Aliquots of 25 μl CellTiter-Glo® Reagent (Promega) were added directly to each well, the plates were incubated at room temperature for 20 min and the luminescence signal was measured according to the manufacturer's protocol. The measurements were made using Infinite® M200 Pro plate reader (Tecan, Switzerland). […] Data were normalized to percentage inhibition. […]
# (§3) (A) Color scale for drug inhibition values. […]
# A673 = assay: as above; format: cell-based; settings: 1 μmol/L drug, 72 hours
# Experimental: as §1, §2, §3
# Hs 919.T. = assay: as above; format: cell-based; settings: 1 μmol/L drug, 72 hours, control cell line
# Experimental: as §1, §2, §3
# RD-ES = assay: as above; format: cell-based; settings: 1 μmol/L drug, 72 hours
# Experimental: as §1, §2, §3
# [6] = design: method as in ref 19 (a number printed in a supplementary file, which may have a reference list of its own: not looked up in the article's list); settings: rats, up to 15 mg gold/kg p.o.; cited from earlier work
# [7] = after 6 months of auranofin 3 mg BID
structure (smiles),measurement,setting,value
"CC(=O)OC[C@H]1O[C@@H]([S-])[C@H](OC(C)=O)[C@@H](OC(C)=O)[C@@H]1OC(C)=O.CCP(CC)CC.[Au+] [Auranofin, auranofin]",phagocytosis,human monocyte,inhibited
same,mean steady state blood-gold concentration,"[1]; 6 mg auranofin/day, n=63 patients",0.68 ± 0.45 µg/mL
same,labelled gold excreted by day 10,[1]; [7],75%
same,labelled gold excreted in feces by day 10,[1]; [7],70%
same,labelled gold excreted in the urine by day 10,[1]; [7],5%
same,mean plasma half-life,[1]; [7],25.5 days
same,mean total body terminal half-life,[1]; [7],80.8 days
same,absorbed gold in erythrocytes / red cells,[1],approximately 40%
same,gold in blood associated with red cells,[1],~40%
same,gold in blood associated with serum proteins,[1],60%
same,gold in plasma / associated with serum proteins,[1],60%
same,labelled gold excreted six months after single dose,[1],approximately 99.6%
same,labelled gold retained in the body six months after single dose,[1],0.4%
same,time to steady state blood gold levels,[1]; clinical studies,about 3 months
same,time to steady state blood-gold concentrations,[1]; clinical studies,about three m onths
same,fraction of gold absorbed after oral administration,"[1]; human, oral",~25%
same,mean terminal body half-life,[1]; n = 5,80 days
same,mean terminal plasma half-life of auranofin gold at steady state,[1]; n = 5,26 days
same,labelled gold excreted by day 10,[1]; single 6 mg oral dose,77%
same,labelled gold excreted in the feces by day 10,[1]; single 6 mg oral dose,73%
same,labelled gold excreted in the urine by day 10,[1]; single 6 mg oral dose,4%
same,mean plasma terminal half-life,[1]; single 6 mg oral dose,17 days
same,mean total body terminal half-life,[1]; single 6 mg oral dose,58 days
same,absorbed gold excreted in urine,[1]; single dose,About 60%
same,administered dose excreted in urine,[1]; single dose,15%
same,ovalbumin antigen-induced release of histamine,rat lung,inhibition
same,superoxide production and phagocytosis,[2],inhibited
same,"chronic toxicity, histological examination","[3]; oral 3.6, 12 and 23 mg/kg/day, 12 months",dose-related karyomegaly and cytomegaly of the renal tubular epithelial
same,subacute toxicity findings,"[3]; oral 3.6, 12 and 36 mg/kg/day, 3 months","Dose-related increase in salivation, decrease in hemoglobin"
same,adenomas of the renal cortical tubular epithelium,"[3]; oral, 12 months, 23 mg/kg/day",occurred in 2 females in the high dose
same,Trough gold concentration,[4]; 24 hours following the fifth once daily i.p. dose of 12 mg/kg,23.9 µg/mL
same,Cmax,"[4]; single i.p. 12 mg/kg auranofin suspension, ganetespib pre-treatment",63.1 µM
same,ADCC of human monocytes,human monocytes,reduced
same,teratogenicity in rabbits,"[5]; oral 0.5, 3 and 6 mg/kg/day",teratogenic potential
same,grossly malformed fetuses,[5]; 0.5 mg/kg/day (low),1.9%
same,grossly malformed fetuses,[5]; 3 mg/kg/day (middle),4.7%
same,grossly malformed fetuses,[5]; 6 mg/kg/day (high),15.5%
same,% Inhibition SK-ES-1,SK-ES-1,99%
same,% Inhibition A673,A673,98%
same,% Inhibition Hs 919.T.,Hs 919.T.,< 50%
same,% Inhibition RD-ES,RD-ES,100%
same,induction of liver enzyme activity,[6],failed to induce liver enzyme activity
